Assay results from patent US10112926B2 (priority 2014, dated 2018).
Counter-ions that a name gives are not always drawn.

Columns and labels:
[1] = biological target: Vps34 (Homo sapiens (Human), UniProt Q8NEB9); settings: read-out: Assay C VPS34 IC50
[2] = biological target: PI 3-kinase alpha (Homo sapiens (Human), UniProt P42336); settings: read-out: Assay A PI3Kα IC50
[3] = biological target: PI 4-kinase beta (Homo sapiens (Human), UniProt Q9UBF8); settings: read-out: Assay D PI4Kβ IC50
[4] = biological target: PI 3-kinase beta (Homo sapiens (Human), UniProt P42338); settings: read-out: Assay B PI3Kβ IC50
PI 3-kinase beta, sequence (P42338 whole entry, looked up): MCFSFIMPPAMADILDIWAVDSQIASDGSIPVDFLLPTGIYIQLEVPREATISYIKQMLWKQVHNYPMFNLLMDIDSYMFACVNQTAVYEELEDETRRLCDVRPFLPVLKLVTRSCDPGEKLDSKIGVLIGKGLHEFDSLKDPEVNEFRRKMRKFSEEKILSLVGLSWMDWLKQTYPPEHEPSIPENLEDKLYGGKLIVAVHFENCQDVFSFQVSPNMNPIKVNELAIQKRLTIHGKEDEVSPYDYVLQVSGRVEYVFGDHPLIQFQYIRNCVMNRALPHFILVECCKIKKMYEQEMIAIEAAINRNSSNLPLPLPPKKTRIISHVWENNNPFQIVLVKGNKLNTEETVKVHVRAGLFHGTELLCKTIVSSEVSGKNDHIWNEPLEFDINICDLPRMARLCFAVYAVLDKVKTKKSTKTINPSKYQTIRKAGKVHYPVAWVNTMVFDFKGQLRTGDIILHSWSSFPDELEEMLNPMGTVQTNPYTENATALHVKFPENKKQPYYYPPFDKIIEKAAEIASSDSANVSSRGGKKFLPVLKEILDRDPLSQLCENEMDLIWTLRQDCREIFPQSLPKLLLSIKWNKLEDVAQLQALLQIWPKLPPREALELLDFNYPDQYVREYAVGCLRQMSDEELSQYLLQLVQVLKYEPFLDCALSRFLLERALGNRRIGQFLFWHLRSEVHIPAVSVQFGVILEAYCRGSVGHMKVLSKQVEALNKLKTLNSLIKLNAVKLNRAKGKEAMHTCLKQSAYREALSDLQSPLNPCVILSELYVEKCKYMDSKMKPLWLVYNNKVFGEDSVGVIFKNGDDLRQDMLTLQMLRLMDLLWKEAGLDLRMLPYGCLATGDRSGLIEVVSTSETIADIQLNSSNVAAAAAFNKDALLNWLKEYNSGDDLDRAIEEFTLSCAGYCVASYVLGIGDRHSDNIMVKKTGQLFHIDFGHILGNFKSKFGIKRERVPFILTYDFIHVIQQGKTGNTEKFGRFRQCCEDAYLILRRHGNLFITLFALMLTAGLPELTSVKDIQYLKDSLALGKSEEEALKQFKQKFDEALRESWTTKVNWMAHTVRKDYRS
PI 3-kinase beta, sequence (P27986 whole entry partner, looked up): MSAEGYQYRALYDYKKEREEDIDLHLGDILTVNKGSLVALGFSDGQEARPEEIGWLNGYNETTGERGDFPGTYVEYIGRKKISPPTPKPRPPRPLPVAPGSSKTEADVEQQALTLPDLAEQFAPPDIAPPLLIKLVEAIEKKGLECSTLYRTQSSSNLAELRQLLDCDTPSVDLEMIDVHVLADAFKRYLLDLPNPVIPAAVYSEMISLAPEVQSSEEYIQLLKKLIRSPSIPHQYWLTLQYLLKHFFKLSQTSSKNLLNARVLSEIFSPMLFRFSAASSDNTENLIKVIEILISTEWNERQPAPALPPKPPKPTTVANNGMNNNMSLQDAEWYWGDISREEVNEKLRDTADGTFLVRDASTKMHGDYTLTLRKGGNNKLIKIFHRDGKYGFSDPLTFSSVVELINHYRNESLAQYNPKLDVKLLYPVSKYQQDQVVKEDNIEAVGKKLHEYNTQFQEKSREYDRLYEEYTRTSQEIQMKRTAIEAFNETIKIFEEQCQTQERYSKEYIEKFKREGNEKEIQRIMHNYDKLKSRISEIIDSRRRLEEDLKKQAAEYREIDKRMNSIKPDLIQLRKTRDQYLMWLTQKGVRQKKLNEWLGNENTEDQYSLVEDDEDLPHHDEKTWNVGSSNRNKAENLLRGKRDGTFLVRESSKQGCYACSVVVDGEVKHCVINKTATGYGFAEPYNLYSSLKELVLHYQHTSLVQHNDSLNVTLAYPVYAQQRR

[5] = biological target: mTOR (Homo sapiens (Human), UniProt P42345); settings: read-out: Assay G mTOR IC50

PI 3-kinase alpha, sequence (P42336 whole entry, looked up): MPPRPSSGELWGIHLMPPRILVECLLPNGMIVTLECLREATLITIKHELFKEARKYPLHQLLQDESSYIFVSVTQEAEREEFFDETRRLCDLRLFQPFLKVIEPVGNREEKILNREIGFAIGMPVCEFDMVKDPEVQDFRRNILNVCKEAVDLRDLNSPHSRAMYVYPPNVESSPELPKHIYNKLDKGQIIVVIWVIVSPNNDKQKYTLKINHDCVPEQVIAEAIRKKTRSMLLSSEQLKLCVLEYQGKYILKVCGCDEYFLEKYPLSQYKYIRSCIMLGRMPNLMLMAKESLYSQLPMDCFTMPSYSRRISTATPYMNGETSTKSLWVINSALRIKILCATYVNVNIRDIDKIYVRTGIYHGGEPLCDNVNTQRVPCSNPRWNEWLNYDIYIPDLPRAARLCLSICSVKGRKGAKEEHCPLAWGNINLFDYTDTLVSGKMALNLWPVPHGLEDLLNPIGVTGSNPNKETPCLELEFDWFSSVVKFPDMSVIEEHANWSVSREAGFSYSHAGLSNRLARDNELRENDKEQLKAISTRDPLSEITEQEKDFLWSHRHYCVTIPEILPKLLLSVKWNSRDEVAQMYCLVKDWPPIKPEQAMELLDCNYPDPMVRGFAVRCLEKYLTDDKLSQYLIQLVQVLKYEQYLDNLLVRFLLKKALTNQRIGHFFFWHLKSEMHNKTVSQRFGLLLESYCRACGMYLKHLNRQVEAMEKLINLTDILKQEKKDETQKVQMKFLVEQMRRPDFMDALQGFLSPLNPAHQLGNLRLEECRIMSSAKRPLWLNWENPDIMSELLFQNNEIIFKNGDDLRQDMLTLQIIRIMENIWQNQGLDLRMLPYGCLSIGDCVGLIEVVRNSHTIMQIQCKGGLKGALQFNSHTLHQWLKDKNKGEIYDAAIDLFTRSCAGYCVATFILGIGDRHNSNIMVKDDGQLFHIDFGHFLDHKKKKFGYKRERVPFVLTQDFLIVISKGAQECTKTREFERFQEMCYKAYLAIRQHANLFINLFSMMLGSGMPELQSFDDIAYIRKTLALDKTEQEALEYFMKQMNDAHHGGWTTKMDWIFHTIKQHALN
PI 3-kinase alpha, sequence (P27986 whole entry partner, looked up): as the sequence (P27986 whole entry partner, looked up) above
Vps34, sequence (Q8NEB9 whole entry): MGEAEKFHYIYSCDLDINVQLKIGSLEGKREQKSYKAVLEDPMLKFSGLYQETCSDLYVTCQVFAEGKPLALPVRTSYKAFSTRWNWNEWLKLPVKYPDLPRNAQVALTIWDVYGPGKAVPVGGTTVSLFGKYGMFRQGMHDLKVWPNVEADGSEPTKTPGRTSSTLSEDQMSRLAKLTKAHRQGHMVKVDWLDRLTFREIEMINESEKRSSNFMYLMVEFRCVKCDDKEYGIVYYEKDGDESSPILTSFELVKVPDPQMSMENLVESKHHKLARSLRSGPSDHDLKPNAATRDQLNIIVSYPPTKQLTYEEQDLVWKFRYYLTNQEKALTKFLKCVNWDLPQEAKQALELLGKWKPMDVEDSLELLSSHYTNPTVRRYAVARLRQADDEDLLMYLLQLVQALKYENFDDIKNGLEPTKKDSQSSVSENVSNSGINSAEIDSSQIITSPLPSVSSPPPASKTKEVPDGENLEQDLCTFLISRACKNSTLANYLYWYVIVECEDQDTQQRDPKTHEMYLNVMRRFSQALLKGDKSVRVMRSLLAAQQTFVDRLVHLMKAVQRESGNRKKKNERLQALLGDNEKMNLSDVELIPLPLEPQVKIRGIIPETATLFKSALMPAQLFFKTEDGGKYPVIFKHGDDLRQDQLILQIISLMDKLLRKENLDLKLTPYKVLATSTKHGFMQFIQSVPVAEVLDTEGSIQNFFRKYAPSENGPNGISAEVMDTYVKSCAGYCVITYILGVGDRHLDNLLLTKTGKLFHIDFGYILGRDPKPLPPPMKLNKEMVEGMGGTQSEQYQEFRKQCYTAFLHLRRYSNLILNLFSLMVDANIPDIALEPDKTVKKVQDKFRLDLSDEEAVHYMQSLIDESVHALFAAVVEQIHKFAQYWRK
PI 4-kinase beta, sequence (Q9UBF8 whole entry): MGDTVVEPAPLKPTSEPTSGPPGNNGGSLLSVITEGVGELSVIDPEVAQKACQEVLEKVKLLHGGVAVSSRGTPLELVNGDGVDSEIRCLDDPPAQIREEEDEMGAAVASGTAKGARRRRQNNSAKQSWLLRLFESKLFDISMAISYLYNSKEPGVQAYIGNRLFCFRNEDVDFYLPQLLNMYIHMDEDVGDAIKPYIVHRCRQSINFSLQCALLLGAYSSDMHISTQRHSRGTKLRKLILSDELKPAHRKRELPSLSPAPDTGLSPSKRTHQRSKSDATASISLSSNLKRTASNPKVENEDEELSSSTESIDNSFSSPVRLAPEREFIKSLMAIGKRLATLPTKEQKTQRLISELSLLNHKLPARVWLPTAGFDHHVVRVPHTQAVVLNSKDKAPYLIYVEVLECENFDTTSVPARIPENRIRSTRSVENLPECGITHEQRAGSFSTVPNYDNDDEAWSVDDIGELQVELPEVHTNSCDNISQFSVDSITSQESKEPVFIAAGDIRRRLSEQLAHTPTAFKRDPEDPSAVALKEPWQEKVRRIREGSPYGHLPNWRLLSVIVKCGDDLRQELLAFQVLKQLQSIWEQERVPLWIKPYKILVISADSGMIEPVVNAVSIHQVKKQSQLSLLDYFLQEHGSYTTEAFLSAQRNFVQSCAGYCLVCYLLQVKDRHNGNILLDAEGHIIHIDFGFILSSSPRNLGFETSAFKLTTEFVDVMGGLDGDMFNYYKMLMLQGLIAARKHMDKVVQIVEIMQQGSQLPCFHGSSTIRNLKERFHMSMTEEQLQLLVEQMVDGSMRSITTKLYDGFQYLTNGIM

| Structure (SMILES) | IC50 [1] | IC50 [2] | IC50 [3] | IC50 [4] | IC50 [5] |
| --- | --- | --- | --- | --- | --- |
| Cc1cc(-c2cc(-c3cc(S(=O)(=O)N[C@H]4CC[C@H](O)CC4)ccc3C)cnc2N)on1 [Example 5.4, trans 3-(6-Amino-5-(3-methylisoxazol-5-yl)pyridin-3-yl)-N-(-4-hydroxycyclohexyl)-4-methylbenzenesulfon-amide hydrochloride] | > 10 µM | 0.25 µM |  |  |  |
| Cc1cc(-c2cc(-c3cc(S(=O)(=O)N4CC[C@H](N(C)C)C4)ccc3C)cnc2N)on1 [Example 19.22, (S)-5-(5-((3-(dimethylamino)pyrrolidin-1-yl)sulfonyl)-2-methylphenyl)-3-(3-methylisoxazol-5-yl)pyridin-2-amine acetic acid salt] | > 10 µM | 2 µM | 8.6 µM | 5.8 µM |  |
| Cc1ncc(-c2cc(-c3cc(S(=O)(=O)NC4CC5(CC(O)C5)C4)ccc3C)cnc2N)s1 (stereo not drawn) [Example 28, 3-(6-Amino-5-(2-methylthiazol-5-yl)pyridin-3-yl)-N-(6-hydroxyspiro[3.3]heptan-2-yl)-4-methylbenzenesulfonamide] | 2 µM | 0.05 µM | 0.68 µM | 0.45 µM |  |
| Cc1noc(-c2cc(-c3cc(S(=O)(=O)NCC4(CO)CCCC4)ccc3C)cnc2N)n1 [Example 37.13, 3-(6-Amino-5-(3-methyl-1,2,4-oxadiazol-5-yl)pyridin-3-yl)-N-((1-(hydroxymethyl)cyclopentyl)methyl)-4-methylbenzenesulfonamide] | > 10 µM |  | 5 µM |  | > 10 µM |
| Cc1noc(-c2cc(-c3cc(S(=O)(=O)NCC4(O)CCC4)ccc3C)cnc2N)n1 [Example 37.15, 3-(6-Amino-5-(3-methyl-1,2,4-oxadiazol-5-yl)pyridin-3-yl)-N-((1-hydroxycyclobutyl)methyl)-4-methylbenzenesulfonamide] | > 10 µM |  | 5.4 µM |  | > 10 µM |
| Cc1noc(-c2cc(-c3cc(S(=O)(=O)NCC(C)(C)CO)ccc3C)cnc2N)n1 [Example 37.18, 3-(6-Amino-5-(3-methyl-1,2,4-oxadiazol-5-yl)pyridin-3-yl)-N-(3-hydroxy-2,2-dimethylpropyl)-4-methylbenzenesulfonamide hydrochloride] | > 10 µM |  | > 10 µM |  | > 10 µM |
| Cc1noc(-c2cc(-c3cc(S(=O)(=O)NCC4(CO)CCC4)ccc3C)cnc2N)n1 [Example 37.26, 3-(6-Amino-5-(3-methyl-1,2,4-oxadiazol-5-yl)pyridin-3-yl)-N-((1-(hydroxymethyl)cyclobutyl)methyl)-4-methylbenzenesulfonamide] | > 10 µM |  | > 10 µM |  | > 10 µM |
| Cc1cc(-c2cc(-c3cc(S(=O)(=O)N4CC(C)(O)C4)ccc3C)cnc2N)on1 [Example 37.28, 1-((3-(6-Amino-5-(3-methylisoxazol-5-yl)pyridin-3-yl)-4-methylphenyl)sulfonyl)-3-methylazetidin-3-ol] | > 10 µM |  | 2.8 µM | 3.8 µM |  |
| Cc1noc(-c2cc(-c3cc(S(=O)(=O)N4CC(CO)C4)ccc3C)cnc2N)n1 [Example 37.39, (S)-((3-(6-Amino-5-(3-methyl-1,2,4-oxadiazol-5-yl)pyridin-3-yl)-4-methylphenyl)sulfonyl)azetidin-3-yl)methanol] | > 10 µM |  | 4.8 µM |  | > 10 µM |
| Cc1cc(-c2cc(-c3cc(S(=O)(=O)NCC(F)(F)F)ccc3C)cnc2N)on1 [Example 39, 3-(6-Amino-5-(3-methylisoxazol-5-yl)pyridin-3-yl)-4-methyl-N-(2,2,2-trifluoroethyl)benzenesulfonamide] | > 10 µM | 0.45 µM | 1.3 µM | 3.7 µM |  |
| Cc1cc(-c2cc(-c3cc(S(=O)(=O)NC[C@@H]4CCCO4)ccc3C)cnc2N)on1 [Example 40, (S)-3-(6-Amino-5-(3-methylisoxazol-5-yl)pyridin-3-yl)-4-methyl-N-((tetrahydrofuran-2-yl)methyl)benzenesulfonamide] | > 10 µM |  | 3.2 µM | 4 µM |  |
| CCCONS(=O)(=O)c1ccc(C)c(-c2cnc(N)c(-c3nc(C)no3)c2)c1 [Example 44, 3-(6-Amino-5-(3-methyl-1,2,4-oxadiazol-5-yl)pyridin-3-yl)-4-methyl-N-propoxybenzenesulfonamide] | > 10 µM |  | 3.55 µM |  | > 10 µM |
| Cc1noc(-c2cc(-c3cc(S(=O)(=O)NOC(C)C)ccc3C)cnc2N)n1 [Example 45, 3-(6-Amino-5-(3-methyl-1,2,4-oxadiazol-5-yl)pyridin-3-yl)-N-isopropoxy-4-methylbenzenesulfonamide] | > 10 µM |  | 7.4 µM |  | 9.1 µM |
| Cc1noc(-c2cc(-c3cc(S(=O)(=O)NOC(C)(C)C)ccc3C)cnc2N)n1 [Example 47, 3-(6-Amino-5-(3-methyl-1,2,4-oxadiazol-5-yl)pyridin-3-yl)-N-(tert-butoxy)-4-methylbenzenesulfonamide] | > 10 µM |  | 4.4 µM |  | 4 µM |
| Cc1noc(-c2cc(-c3cc(S(=O)(=O)NCCC(F)(F)F)ccc3C)cnc2N)n1 [Example 48, 3-(6-Amino-5-(3-methyl-1,2,4-oxadiazol-5-yl)pyridin-3-yl)-4-methyl-N-(3,3,3-trifluoropropyl)benzenesulfonamide] | > 10 µM |  | 6 µM |  | > 10 µM |
| Cc1noc(-c2cc(-c3cc(S(=O)(=O)NC4CCOCC4)ccc3C)cnc2N)n1 [Example 49, 3-(6-Amino-5-(3-methyl-1,2,4-oxadiazol-5-yl)pyridin-3-yl)-4-methyl-N-(tetrahydro-2H-pyran-4-yl)benzenesulfonamide] | > 10 µM |  | 6.8 µM |  | 8.1 µM |
| Cc1cnn(-c2cc(-c3cc(S(=O)(=O)NCC(C)(C)O)ccc3C)cnc2N)c1 [Example 60, 3-(6-Amino-5-(4-methyl-1H-pyrazol-1-yl)pyridin-3-yl)-N-(2-hydroxy-2-methylpropyl)-4-methylbenzenesulfonamide] | > 10 µM |  |  | > 10 µM | > 10 µM |
| Cc1ccc(S(=O)(=O)N[C@H]2CC[C@H](O)CC2)cc1-c1cnc(N)c(-c2nc(C(F)F)no2)c1 [Example 70, 3-(6-Amino-5-(3-(difluoromethyl)-1,2,4-oxadiazol-5-yl)pyridin-3-yl)-N-((1r,4r)-4-hydroxycyclohexyl)-4-methylbenzenesulfonamide hydrochloride] | > 10 µM |  | 8.2 µM |  | > 10 µM |
| Cc1cc(-c2cc(-c3cc(S(=O)(=O)N[C@H]4CC[C@H](CO)CC4)ccc3C)cnc2N)ccn1 [Example 77, trans-3-(2-Amino-2′-methyl-[3,4′-bipyridin]-5-yl)-N-(−4-(hydroxymethyl)cyclohexyl)-4-methylbenzenesulfonamide hydrochloride] | > 10 µM |  | 2.1 µM |  | > 10 µM |
| Cc1ccc(S(=O)(=O)NCC(C)(C)O)cc1-c1cnc(N)c(-c2nc(C3CC3)no2)c1 [Example 80, 3-(6-Amino-5-(3-cyclopropyl-1,2,4-oxadiazol-5-yl)pyridin-3-yl)-N-(2-hydroxy-2-methylpropyl)-4-methylbenzenesulfonamide hydrochloride] | > 10 µM |  | 3.55 µM |  | > 10 µM |
| Cc1ncc(-c2cc(-c3cc(S(=O)(=O)NCC4COC4)ccc3C)cnc2N)s1 [Example 83.2, 3-(6-Amino-5-(2-methylthiazol-5-yl)pyridin-3-yl)-4-methyl-N-(oxetan-3-ylmethyl)benzenesulfonamide] | 6.2 µM | 0.4 µM | 2.4 µM | 6.2 µM |  |
| Cc1cc(-c2cc(-c3cc(S(=O)(=O)NO[C@H]4C[C@H](O)C4)ccc3C)cnc2N)on1 [Example 95, trans-3-(6-amino-5-(3-methylisoxazol-5-yl)pyridin-3-yl)-N-((1r,3r)-3-hydroxycyclobutoxy)-4-methylbenzenesulfonamide] | > 10 µM |  | 0.86 µM |  | > 10 µM |
| Cc1ncc(-c2cc(-c3cc(S(=O)(=O)N[C@H]4CC[C@H](O)CC4)ccc3C)cnc2N)s1 [Example 97, 3-(6-amino-5-(2-methylthiazol-5-yl)pyridin-3-yl)-N-((1r,4r)-4-hydroxycyclohexyl)-4-methylbenzenesulfonamide] | 3.8 µM |  | 1.34 µM |  | 6.5 µM |
| Cc1ncc(-c2cc(-c3cc(S(=O)(=O)NCC4CCCOC4)ccc3C)cnc2N)o1 (stereo not drawn) [Example 104.8, 3-(6-amino-5-(2-methyloxazol-5-yl)pyridin-3-yl)-4-methyl-N-((tetrahydro-2H-pyran-3-yl)methyl)benzenesulfon-amide] | 4.8 µM |  | 2 µM | 0.8 µM |  |
| Cc1ccc(S(=O)(=O)NCCC(C)(C)O)cc1-c1cnc(N)c(-c2cnn(C)n2)c1 [Example 106, 3-(6-amino-5-(2-methyl-2H-1,2,3-triazol-4-yl)pyridin-3-yl)-N-(3-hydroxy-3-methylbutyl)-4-methylbenzenesulfonamide] | > 10 µM |  | 6.4 µM |  | 7.6 µM |
| Cc1noc(-c2cc(-c3cc(S(=O)(=O)NCC(C)(C)O)c(C)cc3F)cnc2N)n1 [Example 113, 5-(6-amino-5-(3-methyl-1,2,4-oxadiazol-5-yl)pyridin-3-yl)-4-fluoro-N-(2-hydroxy-2-methylpropyl)-2-methylbenzenesulfonamide] | > 10 µM | 1.15 µM |  | 8.85 µM |  |
| Cc1ncc(-c2cc(-c3cc(S(=O)(=O)NCC4(O)CC4)ccc3C)cnc2N)o1 [Example 114.1, 3-(6-amino-5-(2-methyloxazol-5-yl)pyridin-3-yl)-N-((1-hydroxycyclopropyl)methyl)-4-methylbenzenesulfon-amide] | 3.4 µM | 0.25 µM | 4.5 µM |  |  |
